According to patent publication US20110152243A1, “NOVEL THIENOPYRROLE COMPOUNDS” (ABBOTT LABORATORIES, priority 2009, published 2011):

Target: PKCθ (Homo sapiens, UniProt Q04759)
Assay: PKCθ enzyme data at 1 mM ATP
Assay type: biochemical

Sequence of PKCθ (Q04759 whole entry): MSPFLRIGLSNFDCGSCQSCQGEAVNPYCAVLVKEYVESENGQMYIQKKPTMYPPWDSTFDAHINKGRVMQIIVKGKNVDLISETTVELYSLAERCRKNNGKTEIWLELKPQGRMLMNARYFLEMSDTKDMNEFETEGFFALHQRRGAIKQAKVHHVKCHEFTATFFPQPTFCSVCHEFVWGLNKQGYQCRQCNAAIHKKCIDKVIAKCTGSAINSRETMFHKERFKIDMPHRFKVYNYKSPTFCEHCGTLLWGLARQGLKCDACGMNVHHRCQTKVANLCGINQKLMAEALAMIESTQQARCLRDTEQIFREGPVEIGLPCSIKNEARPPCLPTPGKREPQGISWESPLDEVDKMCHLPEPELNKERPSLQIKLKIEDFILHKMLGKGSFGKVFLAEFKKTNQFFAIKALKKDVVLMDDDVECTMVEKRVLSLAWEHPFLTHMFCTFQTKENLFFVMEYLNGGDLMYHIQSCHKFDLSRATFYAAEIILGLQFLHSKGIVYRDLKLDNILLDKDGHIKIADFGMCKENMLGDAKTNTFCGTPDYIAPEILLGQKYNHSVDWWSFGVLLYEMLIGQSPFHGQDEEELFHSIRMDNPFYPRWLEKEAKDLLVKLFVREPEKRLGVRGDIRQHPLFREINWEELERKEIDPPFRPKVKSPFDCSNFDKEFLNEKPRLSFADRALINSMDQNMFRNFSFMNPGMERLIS

Row | IC50 | Compound
1 | 100 to 500 nM | O=C1NC(=O)C(c2c[nH]c3sccc23)=C1c1nc(N2CCn3c(nnc3C(F)(F)F)C2)nc2ccccc12 [E.1.20]
2 | 100 to 500 nM | NCC1CCN(c2nc(C3=C(c4c[nH]c5ccsc45)C(=O)NC3=O)c3ccccc3n2)CC1 [G.1.4]
3 | < 100 nM | O=C1NC(=O)C(c2c[nH]c3sccc23)=C1c1nc(N2CCC(CN3CCC3)CC2)nc2ccccc12 [E.1.17]
4 | < 100 nM | O=C1NC(=O)C(c2c[nH]c3ccsc23)=C1c1nc(N2CCC(N3CCCCC3)CC2)nc2ccccc12 [E.2.2]
5 | 100 to 500 nM | O=C1NC(=O)C(c2c3ccccc3nn2CC2CCNCC2)=C1c1c[nH]c2sccc12 [G.1.16]
6 | < 100 nM | O=C1NC(=O)C(c2c[nH]c3sccc23)=C1c1nc(N2CCN3CCCC3C2)nc2ccccc12 (centres unmarked) [F.2.1]
7 | < 100 nM | COc1ccc2nc(N3CCN(C)CC3)nc(C3=C(c4c[nH]c5sccc45)C(=O)NC3=O)c2c1 [F.4.14]
8 | < 100 nM | CN1CC[C@@H]2CN(c3nc(C4=C(c5c[nH]c6sccc56)C(=O)NC4=O)c4ccccc4n3)CC[C@@H]21 [E.1.59]
9 | < 100 nM | CN(C)[C@H]1CC[C@@H](n2nc(C3=C(c4c[nH]c5sccc45)C(=O)NC3=O)c3ccccc32)CC1 [F.4.5]
10 | 100 to 500 nM | CCN1CCC(Cn2nc(C3=C(c4c[nH]c5sccc45)C(=O)NC3=O)c3ccccc32)CC1 [F.4.19]
11 | < 100 nM | CN1CCN(c2nc(C3=C(c4c[nH]c5ccsc45)C(=O)NC3=O)c3ccsc3n2)CC1 [F.3.4]
12 | 100 to 500 nM | O=C1NC(=O)C(c2c[nH]c3sccc23)=C1c1nc(N2CCC(CN3CCOCC3)CC2)nc2ccccc12 [E.1.16]
13 | 100 to 500 nM | CN1CCCC(Cn2nc(C3=C(c4c[nH]c5sccc45)C(=O)NC3=O)c3ccccc32)C1 (centres unmarked) [F.4.28]
14 | < 100 nM | CN1CCN(C2CCN(c3nc(C4=C(c5c[nH]c6sccc56)C(=O)NC4=O)c4ccccc4n3)CC2)CC1 [E.1.8]
15 | 100 to 500 nM | CC(C1CCN(c2nc(C3=C(c4c[nH]c5sccc45)C(=O)NC3=O)c3ccccc3n2)CC1)N1CCOCC1 (centres unmarked) [E.1.2]
16 | 100 to 500 nM | CN(C)CC1CCN(c2nc(C3=C(c4c[nH]c5sccc45)C(=O)NC3=O)c3ccccc3n2)C1 (centres unmarked) [E.1.28]
17 | 100 to 500 nM | COc1cccc2nc(N3CCN(C)CC3)nc(C3=C(c4c[nH]c5sccc45)C(=O)NC3=O)c12 [F.4.11]
18 | 100 to 500 nM | CC(C)(O)c1ncc2n1CCN(c1nc(C3=C(c4c[nH]c5sccc45)C(=O)NC3=O)c3ccccc3n1)C2 [E.1.49]
19 | < 100 nM | O=C1NC(=O)C(c2nc(N3CCN4CCC[C@@H]4C3)nc3cccc(F)c23)=C1c1c[nH]c2sccc12 [F.4.3, (R)-3-(5-Fluoro-2-(hexahydropyrrolo[1,2-a]pyrazin-2(1H)-yl)quinazolin-4-yl)-4-(6H-thieno[2,3-b]pyrrol-4-yl)-1H-pyrrole-2,5-dione]

Row | IC50 | Compound
20 | < 100 nM | Cn1cnc2c1CN(c1nc(C3=C(c4c[nH]c5sccc45)C(=O)NC3=O)c3ccccc3n1)CC2 [E.1.53]
21 | < 100 nM | CN1CCN(c2cc3ccc(F)cc3c(C3=C(c4c[nH]c5sccc45)C(=O)NC3=O)n2)CC1 [F.4.34]
22 | < 100 nM | O=C1NC(=O)C(c2c[nH]c3ccsc23)=C1c1nc(N2CCN3CCCC3C2)nc2ccccc12 (centres unmarked) [E.2.10]
23 | < 100 nM | O=C1NC(=O)C(c2c[nH]c3ccsc23)=C1c1nc(N2CCn3ccnc3C2)nc2ccccc12 [E.2.7]
24 | < 100 nM | O=C1NC(=O)C(c2c[nH]c3sccc23)=C1c1nc(N2CCN(C3CC3)CC2)nc2ccccc12 [E.1.18]
25 | < 100 nM | CN(C)CC1CCn2c(c(C3=C(c4c[nH]c5sccc45)C(=O)NC3=O)c3ccccc32)C1 (centres unmarked) [Example #2, 3-(8-((Dimethylamino)methyl)-6,7,8,9-tetrahydropyrido[1,2-a]indol-10-yl)-4-(6H-thieno[2,3-b]pyrrol-4-yl)-1H-pyrrole-2,5-dione]
26 | < 100 nM | O=C1NC(=O)C(c2c[nH]c3sccc23)=C1c1nc(N2CCNCC2)nc2sccc12 [G.1.18]
27 | 100 to 500 nM | O=C1NC(=O)C(c2nn(C3CCNCC3)c3ccccc23)=C1c1c[nH]c2sccc12 [G.1.11]
28 | < 100 nM | O=C1NC(=O)C(c2c[nH]c3sccc23)=C1c1nc(N2CCn3c(cnc3CO)C2)nc2ccccc12 [E.1.48]
29 | < 100 nM | Cn1cnc2c1CCN(c1nc(C3=C(c4c[nH]c5sccc45)C(=O)NC3=O)c3ccccc3n1)C2 [E.1.54]
30 | 500 to 1000 nM | Cc1noc(C2CCN(c3nc(C4=C(c5c[nH]c6sccc56)C(=O)NC4=O)c4ccccc4n3)CC2)n1 [E.1.10]
31 | < 100 nM | O=C1NC(=O)C(c2c[nH]c3ccsc23)=C1c1nc(N2CCN3CCC[C@@H]3C2)nc2ccccc12 [E.2.1, (R)-3-(2-(Hexahydropyrrolo[1,2-a]pyrazin-2(1H)-yl)quinazolin-4-yl)-4-(4H-thieno[3,2-b]pyrrol-6-yl)-1H-pyrrole-2,5-dione]
32 | 100 to 500 nM | O=C1NC(=O)C(c2c[nH]c3sccc23)=C1c1nc(N2CCn3ncnc3C2)nc2ccccc12 [E.1.38]
33 | < 100 nM | O=C1NC(=O)C(c2c[nH]c3sccc23)=C1c1nc(N2CCN3CCC[C@@H]3C2)nc2ccccc12 [E.1.1, (R)-3-(2-(Hexahydropyrrolo[1,2-a]pyrazin-2(1H)-yl)quinazolin-4-yl)-4-(6H-thieno[2,3-b]pyrrol-4-yl)-1H-pyrrole-2,5-dione]
34 | < 100 nM | Cc1nnc2n1CCN(c1nc(C3=C(c4c[nH]c5sccc45)C(=O)NC3=O)c3ccccc3n1)C2 [E.1.40]
35 | < 100 nM | O=C1NC(=O)C(c2c[nH]c3sccc23)=C1c1nc(N2CCN3CCC[C@H]3C2)nc2ccccc12 [E.1.44]
36 | 100 to 500 nM | CN1CCC(n2nc(C3=C(c4c[nH]c5sccc45)C(=O)NC3=O)c3ccccc32)CC1 [F.4.7]
37 | < 100 nM | CN1CCN(c2nc(C3=C(c4c[nH]c5sccc45)C(=O)NC3=O)c3ccccc3n2)CC1(C)C [E.1.24]

The remaining lines, values behind:

Row | Compound | IC50
38 | CN1CC(Cn2nc(C3=C(c4c[nH]c5sccc45)C(=O)NC3=O)c3ccccc32)C1 [F.4.22] | < 100 nM
39 | CN1CCN(c2nc(C3=C(c4c[nH]c5sccc45)C(=O)NC3=O)c3ncccc3n2)CC1 [F.4.25] | 100 to 500 nM
40 | O=C1NC(=O)C(c2c[nH]c3ccsc23)=C1c1nc(N2CCC(N3CCCC3)CC2)nc2ccccc12 [E.2.6] | < 100 nM
41 | CN(C)CCCn1nc(C2=C(c3c[nH]c4sccc34)C(=O)NC2=O)c2ccccc21 [F.4.29] | 100 to 500 nM
42 | CN1CCN(c2nc3c(c(C4=C(c5c[nH]c6sccc56)C(=O)NC4=O)n2)CCC3)CC1 [F.4.10] | 100 to 500 nM
43 | COCCN1CCC(Cn2nc(C3=C(c4c[nH]c5sccc45)C(=O)NC3=O)c3ccccc32)CC1 [F.4.21] | 100 to 500 nM
44 | CN1CCN(c2nccc(C3=C(c4c[nH]c5sccc45)C(=O)NC3=O)n2)CC1 [F.4.8] | 500 to 1000 nM
45 | NC1(CCO)CCN(c2nc(C3=C(c4c[nH]c5sccc45)C(=O)NC3=O)c3ccccc3n2)CC1 [E.1.34] | < 100 nM
46 | CN1CCN(c2nc(C3=C(c4c[nH]c5sccc45)C(=O)NC3=O)c3cccn3n2)CC1 [F.4.36] | < 100 nM
47 | O=C1NC(=O)C(c2c[nH]c3sccc23)=C1c1nc(N2CCC(n3ccnc3)C2)nc2ccccc12 (centres unmarked) [E.1.23] | 500 to 1000 nM
48 | CNC1CCN(c2nc(C3=C(c4c[nH]c5sccc45)C(=O)NC3=O)c3ccccc3n2)C1 (centres unmarked) [G.1.7] | 100 to 500 nM
49 | CNCC1CCN(c2nc(C3=C(c4c[nH]c5sccc45)C(=O)NC3=O)c3ccccc3n2)CC1 [G.1.15] | 100 to 500 nM
50 | CN1CCN(c2nc3c(c(C4=C(c5c[nH]c6sccc56)C(=O)NC4=O)n2)CCCC3)CC1 [F.4.16] | 100 to 500 nM
51 | C[C@@H]1CN(C2CCN(c3nc(C4=C(c5c[nH]c6sccc56)C(=O)NC4=O)c4ccccc4n3)CC2)C[C@H](C)O1 [E.1.6] | 100 to 500 nM
52 | CC(C1CCN(c2nc(C3=C(c4c[nH]c5sccc45)C(=O)NC3=O)c3ccccc3n2)CC1)N(C)C (centres unmarked) [E.1.12] | 100 to 500 nM
53 | O=C1NC(=O)C(c2nn(CC3CCNCC3)c3ccccc23)=C1c1c[nH]c2sccc12 [G.1.12] | < 100 nM
54 | CC(C1CCN(c2nc(C3=C(c4c[nH]c5sccc45)C(=O)NC3=O)c3ccccc3n2)CC1)N1CCCC1 (centres unmarked) [E.1.4] | 500 to 1000 nM

Row | Compound | IC50
55 | CN1CCC(Cc2cn(C3=C(c4c[nH]c5sccc45)C(=O)NC3=O)c3ccccc23)CC1 [F.4.37] | < 100 nM
56 | CN1CCN(c2nc(C3=C(c4c[nH]c5sccc45)C(=O)NC3=O)c3ccccc3n2)CC1CO (centres unmarked) [E.1.45] | < 100 nM
57 | O=C1NC(=O)C(c2c[nH]c3sccc23)=C1c1nc(N2CC[C@H](N3CCCC3)[C@H](F)C2)nc2ccccc12 [E.1.29] | 100 to 500 nM
58 | CNC1(C)CCN(c2nc(C3=C(c4c[nH]c5sccc45)C(=O)NC3=O)c3ccccc3n2)CC1 [E.1.42] | 100 to 500 nM
59 | O=C1NC(=O)C(c2c[nH]c3sccc23)=C1c1nc(N2CC[C@@H](N3CCCC3)[C@H](F)C2)nc2ccccc12 [E.1.32] | < 100 nM
60 | Cc1ccc2nc(N3CCN(C)CC3)nc(C3=C(c4c[nH]c5sccc45)C(=O)NC3=O)c2c1 [F.4.31] | < 100 nM
61 | CC1(N)CCN(c2nc(C3=C(c4c[nH]c5sccc45)C(=O)NC3=O)c3ccccc3n2)CC1 [G.1.10] | < 100 nM
62 | CN1CCN(c2nc(C3=C(c4c[nH]c5sccc45)C(=O)NC3=O)c3c(O)cccc3n2)CC1 [F.4.12] | 500 to 1000 nM
63 | CN1CCC(Cn2cc(C3=C(c4c[nH]c5ccccc45)C(=O)NC3=O)c3ccsc32)CC1 [F.5.1] | < 100 nM
64 | CC(C)(C)N1CCN(c2nc(C3=C(c4c[nH]c5sccc45)C(=O)NC3=O)c3ccccc3n2)CC1 [E.1.22] | < 100 nM
65 | CN1CC2CCN(c3nc(C4=C(c5c[nH]c6sccc56)C(=O)NC4=O)c4ccccc4n3)CC2C1 (centres unmarked) [E.1.39] | < 100 nM
66 | CNCC1CCN(c2nc(C3=C(c4c[nH]c5sccc45)C(=O)NC3=O)c3ccccc3n2)C1 (centres unmarked) [G.1.14] | 500 to 1000 nM
67 | CN1CCN(c2nc(C3=C(c4c[nH]c5ccsc45)C(=O)NC3=O)c3ccc(F)cc3n2)CC1 [F.3.5] | < 100 nM
68 | O=C1NC(=O)C(c2c[nH]c3ccsc23)=C1c1nc(N2CCN3C(=O)CCC3C2)nc2ccccc12 (centres unmarked) [E.2.9] | 100 to 500 nM
69 | Cc1cc2c(C3=C(c4nc(N5CCN(C)CC5)nc5ccccc45)C(=O)NC3=O)c[nH]c2s1 [F.1.3] | 100 to 500 nM
70 | CC(C1CCN(C)CC1)n1nc(C2=C(c3c[nH]c4sccc34)C(=O)NC2=O)c2ccccc21 (centres unmarked) [F.4.35] | 500 to 1000 nM
71 | NC(=O)C1CCN(c2nc(C3=C(c4c[nH]c5sccc45)C(=O)NC3=O)c3ccccc3n2)CC1 [E.1.14] | 500 to 1000 nM
